Results from patent US20110071146A1, “17BetaHSD Type 5 Inhibitor” (ASTELLAS PHARMA INC., priority 2006, published 2011).
Where two headings read alike, the source gives them in different places.

Tests used:
human 17βHSD type 5 = target: T1, human 17βHSD type 5 (Homo sapiens, UniProt P42330); assay: Measurement of enzyme activity of human 17βHSD type 5 (testosterone production from androstenedione, DELFIA); assay type: biochemical; conditions: for IC50: purified human 17βHSD type 5, androstenedione 300 nM, NADPH 200 μM, pH 6.0, room temperature 2 hours
T1 construct: A full-length cDNA encoding human 17βHSD type 5 used in the pharmacological test; made in house; host or cells: Escherichia coli BL21
T1 sequence (P42330 1-323): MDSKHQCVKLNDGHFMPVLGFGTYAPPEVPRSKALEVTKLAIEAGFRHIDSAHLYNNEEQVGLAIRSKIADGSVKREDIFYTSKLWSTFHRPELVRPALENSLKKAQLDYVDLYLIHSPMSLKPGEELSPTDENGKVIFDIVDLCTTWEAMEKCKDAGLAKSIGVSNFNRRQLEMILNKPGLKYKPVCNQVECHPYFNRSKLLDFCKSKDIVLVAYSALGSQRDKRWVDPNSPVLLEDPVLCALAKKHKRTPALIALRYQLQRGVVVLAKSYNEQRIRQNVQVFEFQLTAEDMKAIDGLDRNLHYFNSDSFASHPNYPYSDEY
Excerpt: (§1) An excellent selective inhibitory activity against human 17βHSD type 5 of the compounds of the present invention was confirmed by a test method described below. Further, the test may be performed by referring to the details of test procedure described in Maniatis, T. et al., Molecular Cloning—A Laboratory Manual Cold Spring Harbor Laboratory, NY and the like (1982). In addition, a gene encoding human 17βHSD type5 and type3 described in 1 and 2 below, and human 17βHSD type5 and type3 may be obtained by the method described in Mol. Endocrinol, 1971-1984, 11(13) (1997).
A full-length cDNA encoding human 17βHSD type 5 used in the pharmacological test of the present invention was obtained by the PCR method using a cDNA derived from a human lung cancer-derived cell line, A549 cells as a template. The nucleotide sequence of the obtained cDNA was analyzed by the dideoxyterminator method, and the clone matched with the known human 17βHSD type 5 sequence (GenBank accession No. NM_003739) was selected. Escherichia coli BL21 was transformed with a plasmid containing the cDNA, cultured on a large scale, and the proteins were purified by using GSTrapFF column (Amersham) and PreScissionProtease (Amersham). The purification was performed in accordance with the instructions attached to the GSTrapFF column.
(§2) Enzyme activity was measured referring to Trevor M. Penning, et al., Biochem. J., 351, 67-77, (2000). Specifically, using a 100 mM potassium phosphate buffer (pH 6.0), (1) the enzyme purified in above 1 at a final concentration of 10 μg/mL, (2) androstenedione at a final concentration of 300 nM, (3) NADPH at a final concentration of 200 μM and (4) a test substance at a final concentration of 3 μM were mixed to react at room temperature for 2 hours, and then the amount of testosterone produced was measured using DELFIA (registered trademark) Testosterone Reagents R050-201 (PerkinElmer). The measurement was performed in accordance with the attached instructions. The amount of reduction of testosterone production in the presence of the compound was obtained as a relative value with respect to the amount of testosterone in the absence of the enzyme set at 0% and the amount of testosterone produced in the absence of the compound set at 100%. Then, IC50 values were calculated by the Logistic regression method.

human 17βHSD type 3 = target: T2, human 17βHSD type 3 (Homo sapiens, UniProt P37058); assay: Measurement of enzyme activity of human 17βHSD type 3 (testosterone production from androstenedione, DELFIA); assay type: biochemical; conditions: human 17βHSD type 3 (293 cell supernatant as enzyme source)
T2 construct: A full-length cDNA encoding human 17βHSD type 3 used in the pharmacological test; made in house; host or cells: human fetus kidney-derived 293 cells (transfected; supernatant of disrupted cells, not purified)
T2 sequence (P37058 1-310): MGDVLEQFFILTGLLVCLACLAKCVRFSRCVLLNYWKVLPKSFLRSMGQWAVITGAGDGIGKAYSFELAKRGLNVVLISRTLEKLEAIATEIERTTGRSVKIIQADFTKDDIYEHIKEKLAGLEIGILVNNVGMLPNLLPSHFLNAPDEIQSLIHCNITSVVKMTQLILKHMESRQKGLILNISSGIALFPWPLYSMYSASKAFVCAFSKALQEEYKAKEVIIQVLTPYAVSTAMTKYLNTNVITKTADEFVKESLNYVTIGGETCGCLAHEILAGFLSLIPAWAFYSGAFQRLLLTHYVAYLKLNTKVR
Excerpt: as §1
A full-length cDNA encoding human 17βHSD type 3 used in the pharmacological test of the present invention was obtained by the PCR method using a cDNA derived from human testis as a template. The nucleotide sequence of the obtained cDNA was analyzed by the dideoxyterminator method, and the clone matched with the known human 17βHSD type 3 sequence (GenBank accession No. BC034281) was selected. Subsequently, a human fetus kidney-derived cell line, 293 cells was transformed with a plasmid containing the cDNA, and the cells were collected 24 hours later. The collected cells were then disrupted in a phosphate buffer solution containing 5% glycerol (500 μL per 100 mm-dish of a phosphate buffer solution (pH 7.4, 200 mM) containing 5% glycerol) and centrifuged (16000 rpm, 5 min, 4° C.), and the supernatant was used as an enzyme source.
as §2

[1] = Measurement of concentrations of human 17βHSD type 5 inhibitor compounds in mouse tissues (plasma, prostate) after oral administration; assay type: in vivo; conditions: male ICR mice, 2 hours after administration
Experimental: The concentrations in plasma and in prostate were measured after oral administration of a test substance. Male 8 to 15-week old ICR mice were used, and a solution or suspension obtained by adding 1 N NaOH solution and water in an equivalent amount to a test substance and stirring was used as an administration solution. The administration solution was administered orally once to mice, and after 2 hours, blood and a prostate were collected under ether anesthesia. The prostate was frozen and stored at −80° C. until measurement. The blood was centrifuged (3000 rpm, 15 min, 4° C.) after the addition of a minor amount of heparin, and the upper layer was collected as plasma and frozen and stored at −80° C. until measurement. 0.1 mL of the plasma was subjected to protein degeneration with 0.1 mL of acetonitrile and then centrifuged (15000 rpm, 7 min, 4° C.) to remove proteins and the supernatant thus obtained was used as an HPLC sample. The prostate was homogenized in a phosphate buffer solution (200 mM, pH 7.4, 0.5 mL), and then the whole volume was added to 3 mL of t-butyl methyl ether to perform extraction. The solvent was evaporated in a stream of nitrogen (15 min, 45° C.). The residue was resuspended in a Tris buffer solution (12.5 mM, pH 7.4, 0.3 mL) containing 2% BSA, and an equal volume of acetonitrile (0.3 mL) was added. Protein was removed as in the case of plasma and the supernatant was used as an HPLC measurement sample. Measurement was performed by an ordinary method using liquid chromatography (HPLC).
Column: STR ODS-II (registered trademark), particle size: 5 μm, inner diameter: 4.6 mm, length: 150 mm, joint type: Waters Mobile phase: 20 mM ammonium acetate:acetonitrile=7:3 or 17 mM ammonium acetate:acetonitrile=6:4 Flow rate: 1 mL/min Column temperature: 40° C. Injection volume: 50 μL

5α-reductase = conditions: patients with BPH; cited from earlier work
[2] = plasma, oral single dose 100 mg/kg, read-out: Conc (plasma)
[3] = plasma, oral single dose 300 mg/kg, read-out: Conc (plasma)
[4] = prostate, oral single dose 100 mg/kg, read-out: Conc (prostate)
[5] = prostate, oral single dose 300 mg/kg, read-out: Conc (prostate)

## O=C(O)c1cn(S(=O)(=O)c2ccc(Br)cc2)c2cc3c(cc12)OCO3 [Example 203]
Human 17βHSD type 5
  IC50: 2000 nM
Human 17βHSD type 3
  IC50: > 10 µM

## O=C(O)c1cn(S(=O)(=O)c2ccccc2)c2ccccc12 [Example 1, 1-(phenylsulfonyl)-1H-indole-3-carboxylic acid]
[1]; plasma, oral single dose 30 mg/kg, read-out: Conc (plasma)
  concentration at 2 h: 17 µM
[1]; [2]
  concentration at 2 h: 57.4 µM
[1]; [3]
  concentration at 2 h: 145 µM
[1]; prostate, oral single dose 30 mg/kg, read-out: Conc (prostate)
  concentration at 2 h: 5.3 µM
[1]; [4]
  concentration at 2 h: 13.3 µM
[1]; [5]
  concentration at 2 h: 47.4 µM

## O=C(O)c1c(Cl)n(Cc2ccc(Cl)cc2Cl)c2ccccc12 [(2), reference compound]
Human 17βHSD type 5
  IC50: > 10000 nM
Human 17βHSD type 5; summary of Table 51
  17βHSD type 5 inhibitory activity (in words): scarcely exhibited 17βHSD type 5 inhibitory activity

## O=C(O)c1cn(S(=O)(=O)c2ccccc2)c2c(Cl)cccc12 [Example 191]
Human 17βHSD type 5
  IC50: 300 nM
Human 17βHSD type 3
  IC50: > 10 µM

## O=C(O)c1cn(S(=O)(=O)c2ccccc2)c2c(F)cccc12 [Example 187]
Human 17βHSD type 5
  IC50: 2200 nM
Human 17βHSD type 3
  IC50: > 10 µM
[1]; [2]
  concentration at 2 h: 69.7 µM
[1]; [4]
  concentration at 2 h: 12.2 µM

## O=C(O)c1cn(S(=O)(=O)c2ccc(Br)cc2)c2ccccc12 [Example 144]
Human 17βHSD type 5
  IC50: 90 nM
Human 17βHSD type 3
  IC50: > 10 µM
[1]; [2]
  concentration at 2 h: 38.5 µM
[1]; [3]
  concentration at 2 h: 79.1 µM
[1]; [4]
  concentration at 2 h: 7.2 µM
[1]; [5]
  concentration at 2 h: 24.8 µM

## CC(C)(C)NC(=O)[C@H]1CC[C@H]2[C@@H]3CC[C@H]4NC(=O)C=C[C@]4(C)[C@H]3CC[C@]12C [finasteride]
5α-reductase
  concentration of DHT in the prostate after administration, relative to the concentration before the administration: about 20%
  increase of the concentration of testosterone in the prostate: 4 fold

## Cc1ccc(S(=O)(=O)n2cc(C(=O)O)c3ccccc32)cc1 [Example 138]
Human 17βHSD type 5
  IC50: 330 nM
Human 17βHSD type 3
  IC50: > 10 µM

## O=C(O)c1cn(S(=O)(=O)c2ccccc2)c2ccc(F)cc12 [Example 175]
Human 17βHSD type 5
  IC50: 120 nM
Human 17βHSD type 3
  IC50: 8.9 µM
[1]; [2]
  concentration at 2 h: 83.8 µM
[1]; [4]
  concentration at 2 h: 8.6 µM

## O=C(O)c1c(Cl)n(Cc2ccc(Cl)cc2)c2ccccc12 [(1), reference compound]
Human 17βHSD type 5
  IC50: > 10000 nM

## COc1ccc(S(=O)(=O)n2cc(C(=O)O)c3ccccc32)cc1 [Example 133, 1-[(4-methoxyphenyl)sulfonyl]-1H-indole-3-carboxylic acid]
Human 17βHSD type 5
  IC50: 3100 nM
Human 17βHSD type 3
  IC50: > 10 µM

## CCc1cccc2c(C(=O)O)cn(S(=O)(=O)c3ccccc3)c12 [Example 168]
Human 17βHSD type 5
  IC50: 85 nM
Human 17βHSD type 3
  IC50: > 10 µM

## Cc1ccc2c(c1)c(C(=O)O)cn2S(=O)(=O)c1ccccc1 [Example 163]
Human 17βHSD type 5
  IC50: 220 nM
Human 17βHSD type 3
  IC50: > 10 µM
[1]; [2]
  concentration at 2 h: 88.8 µM
[1]; [4]
  concentration at 2 h: 19.1 µM

## O=C(O)c1cn(S(=O)(=O)c2ccccc2)c2ccc(Cl)cc12 [Example 190]
Human 17βHSD type 5
  IC50: 690 nM
Human 17βHSD type 3
  IC50: > 10 µM
[1]; [3]
  concentration at 2 h: 226 µM
[1]; [5]
  concentration at 2 h: 37.4 µM

## O=C(O)c1cn(S(=O)(=O)c2ccc(Br)cc2)c2c(Cl)cccc12 [Example 192]
Human 17βHSD type 5
  IC50: 69 nM
Human 17βHSD type 3
  IC50: > 10 µM
[1]; [2]
  concentration at 2 h: 57.3 µM
[1]; [3]
  concentration at 2 h: 126 µM
[1]; [4]
  concentration at 2 h: 9.4 µM
[1]; [5]
  concentration at 2 h: 24.9 µM

## CC(C)c1ccc(S(=O)(=O)n2cc(C(=O)O)c3cccc(Cl)c32)cc1 [Example 193]
Human 17βHSD type 5
  IC50: 130 nM
Human 17βHSD type 3
  IC50: > 10 µM

## Cc1cc(Br)ccc1S(=O)(=O)n1cc(C(=O)O)c2cccc(Cl)c21 [Example 194]
Human 17βHSD type 5
  IC50: 190 nM
Human 17βHSD type 3
  IC50: 6.2 µM

## COc1cccc2c1c(C(=O)O)cn2S(=O)(=O)c1ccccc1 [Example 155]
Human 17βHSD type 5
  IC50: 5500 nM
Human 17βHSD type 3
  IC50: > 10 µM
[1]; [2]
  concentration at 2 h: 88.4 µM
[1]; [4]
  concentration at 2 h: 23 µM

## O=C(O)c1cn(S(=O)(=O)c2ccc(Br)cc2)c2c1CCCC2 [Example 208]
Human 17βHSD type 5
  IC50: 2200 nM
Human 17βHSD type 3
  IC50: > 10 µM
